Measurements as given in ChEMBL document CHEMBL1201862, “PubChem BioAssay data set” (2004).
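Test compounds were applied to cells in 96-well plates for 48 hours at 5 doses. GI50: concentration for 50% inhibition of growth.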 The source made the active and inactive calls. Rule as the data show it: active = GI50 up to about 1.1 µM and inactive = higher.

Columns and labels:
Assay in all cases: NCI tumour cell line growth inhibition, 48 h
A549 = test system: A549
COLO 205 = test system: COLO 205
DLD-1 = test system: DLD-1
EKVX = test system: EKVX
HCT-15 = test system: HCT-15
HT-29 = test system: HT-29
K562 = test system: K562
KM-20L2 = test system: KM-20L2
Malme-3M = test system: Malme-3M
NCI-H460 = test system: NCI-H460
NCI-H522 = test system: NCI-H522
RPMI-8226 = test system: RPMI-8226
SK-MEL-2 = test system: SK-MEL-2
SK-OV-3 = test system: SK-OV-3
SN12C = test system: SN12C
SNB-78 = test system: SNB-78
UACC-257 = test system: UACC-257

| Structure (SMILES) | GI50 (A549) | GI50 (COLO 205) | GI50 (DLD-1) | GI50 (EKVX) | GI50 (HCT-15) [µM] | GI50 (HT-29) | GI50 (K562) | GI50 (KM-20L2) | GI50 (Malme-3M) | GI50 (NCI-H460) | GI50 (NCI-H522) | GI50 (RPMI-8226) | GI50 (SK-MEL-2) | GI50 (SK-OV-3) | GI50 (SN12C) | GI50 (SNB-78) | GI50 (UACC-257) |
| --- | --- | --- | --- | --- | --- | --- | --- | --- | --- | --- | --- | --- | --- | --- | --- | --- | --- |
| Cc1ccccc1/N=N/c1c(-c2ccccc2)nn(C(=O)CC(=O)Nc2cccc(Cl)c2)c1-c1ccccc1 | > 10 µM (inactive) | 14.9 µM (inactive) | 20.4 µM (inactive) | 28.4 µM (inactive) | 16.9 | 15.3 µM (inactive) | 16.8 µM (inactive) | 21.5 µM (inactive) | 37.9 µM (inactive) | 19.6 µM (inactive) | > 10 µM (inactive) | 12.1 µM (inactive) | 12.7 µM (inactive) | 27.7 µM (inactive) | 15.8 µM (inactive) | 23.5 µM (inactive) | 0.247 µM (active) |
| C=CC1(C(=O)O)CCC(C(C)(C)C)CC1 (stereo not given) | > 100 µM (inactive) | > 100 µM (inactive) | > 100 µM (inactive) | > 100 µM (inactive) | > 100 | > 100 µM (inactive) | > 100 µM (inactive) | > 100 µM (inactive) | > 100 µM (inactive) | > 100 µM (inactive) | 86.1 µM (inactive) | > 100 µM (inactive) | > 100 µM (inactive) | > 100 µM (inactive) | > 100 µM (inactive) | > 100 µM (inactive) | > 100 µM (inactive) |
| COc1cc2c(Cc3cc(OCc4ccccc4)ccc3N)nccc2c(OC)c1OC | > 10 µM (inactive) | > 10 µM (inactive) | > 10 µM (inactive) | > 10 µM (inactive) | > 10 | > 10 µM (inactive) | > 10 µM (inactive) | > 10 µM (inactive) | > 10 µM (inactive) | > 10 µM (inactive) | > 10 µM (inactive) | > 10 µM (inactive) | > 10 µM (inactive) | > 10 µM (inactive) | > 10 µM (inactive) | > 10 µM (inactive) | > 10 µM (inactive) |
| COc1ccc(C(=O)O/N=C2/CCCCC2CN(C)C)cc1 (stereo not given) | > 100 µM (inactive) | > 100 µM (inactive) | > 100 µM (inactive) | > 100 µM (inactive) | > 100 | > 100 µM (inactive) | > 100 µM (inactive) | > 100 µM (inactive) | > 100 µM (inactive) | > 100 µM (inactive) | > 100 µM (inactive) | > 100 µM (inactive) | > 100 µM (inactive) | > 100 µM (inactive) | > 100 µM (inactive) | > 100 µM (inactive) | > 100 µM (inactive) |
| C1=Cc2nc1c(-c1ccncc1)c1ccc([n-]1)c(-c1ccncc1)c1nc(c(-c3ccncc3)c3ccc([n-]3)c2-c2ccncc2)C=C1.[Zn+2] | > 100 µM (inactive) | > 100 µM (inactive) | > 100 µM (inactive) | > 100 µM (inactive) | > 100 | > 100 µM (inactive) | > 100 µM (inactive) | > 100 µM (inactive) | > 100 µM (inactive) | > 100 µM (inactive) | > 100 µM (inactive) | > 100 µM (inactive) | > 100 µM (inactive) | > 100 µM (inactive) | > 100 µM (inactive) | > 100 µM (inactive) | > 100 µM (inactive) |
